Results from patent US11661397B2, “1,4-disubstituted imidazole derivative” (Sumitomo Pharma Co., Ltd., priority 2015, dated 2023).
pIC50: −log10 of the molar value.

Tests used:
HCT-116 cells [1] = assay: Inhibition of sphere-forming ability of cancer cells (Test Example 1); type: cell-based; details: Homo sapiens, 96 h; HCT-116 spheres, non-adherent, serum-free, 4 days, CellTiter-Glo; read-out: Sphere IC50 value (concentration for 50% inhibition of cell proliferation)
Description: (§1) HCT-116 cells were available from the American Type Culture Collection (ATCC). HCT-116 cells were cultured at 37° C. and 5% CO2 using the McCoy's 5a medium containing 10% fetal bovine serum (FBS) and 1% penicillin/streptomycin. […] The test compounds were added into each well to adjust the final concentration of DMSO to 0.1%, and the cells were cultured for 4 days.

HCT-116 cells [2] = assay: Test for inhibiting sphere-forming ability of cancer cells in the presence of BSA (Test Example 2); type: cell-based; details: Homo sapiens, 96 h; HCT-116 spheres, 5% bovine serum albumin (BSA), 4 days, CellTiter-Glo; read-out: Sphere IC50 value (concentration for 50% inhibition of cell proliferation)
Description: as §1

| pIC50 (HCT-116 cells [1]) | pIC50 (HCT-116 cells [2]) | SMILES |
| --- | --- | --- |
| 7.52 | 6.46 | O=C(Nc1cn(Cc2cccc(C(F)(F)F)c2)cn1)c1ccc(CO)cn1 [Example 1, 5-(Hydroxymethyl)-N-{1-[3-(trifluoromethyl)benzyl]-1H-imidazol-4-yl}picolinamide] |
| 6.07 | 5.34 | O=C(Nc1cn(Cc2cccc(C(F)(F)F)c2)cn1)c1cnc(C(O)CO)c(Cl)c1 (centres unmarked) [Example 28] |
| 7.12 | 6.21 | O=C(Nc1cn(Cc2cccc(Cl)c2)cn1)c1cnc(CO)c(C(F)F)c1 [Example 55, N-[1-(3-chlorobenzyl)-1H-imidazol-4-yl]-5-(difluoromethyl)-6-(hydroxymethyl)nicotinamide] |
| 5.35 | 5.30 | CC(=O)NCc1ccc(C(=O)Nc2cn(Cc3cccc(C(F)(F)F)c3)cn2)cn1 [Example 25, 6-[(Acetylamino)methyl]-N-{1-[3-(trifluoromethyl)benzyl]-1H-imidazol-4-yl}nicotinamide] |
| 6.91 | 6.20 | O=C(Nc1cn(Cc2cccc(C(F)(F)F)c2)cn1)c1cnc(CO)s1 [Example 40, 2-(Hydroxymethyl)-N-{1-[3-(trifluoromethyl)benzyl]-1H-imidazol-4-yl}-1,3-thiazole-5-carboxamide] |
| 5.44 | 5.16 | CC(O)c1ccc(C(=O)Nc2cn(Cc3cccc(C(F)(F)F)c3)cn2)cn1 (centres unmarked) [Example 6, 6-(1-Hydroxyethyl)-N-{1-[3-(trifluoromethyl)benzyl]-1H-imidazol-4-yl}nicotinamide] |
| 6.42 | 6.17 | O=C(Nc1cn(Cc2ccc(C(F)(F)F)c(F)c2)cn1)c1cnc(CO)c(C(F)F)c1 [Example 74, 5-(difluoromethyl)-N-{1-[3-fluoro-4-(trifluoromethyl)benzyl]-1H-imidazol-4-yl}-6-(hydroxymethyl)nicotinamide] |
| 6.19 | 6.12 | O=C(Nc1cn(Cc2cccc(C(F)(F)F)c2)cn1)c1cc(CO)on1 [Example 21] |
| 6.16 | 5.21 | O=C(Nc1cn(Cc2cccc(C(F)(F)F)c2)cn1)c1cnc(C(O)CO)c(F)c1 (centres unmarked) [Example 27] |

Further lines, the compound ahead of its results:

| SMILES | pIC50 (HCT-116 cells [1]) | pIC50 (HCT-116 cells [2]) |
| --- | --- | --- |
| O=C(Nc1cn(Cc2ccc(Cl)c(Cl)c2)cn1)c1cnc(CO)c(C(F)F)c1 [Example 71, N-[1-(3,4-dichlorobenzyl)-1H-imidazol-4-yl]-5-(difluoromethyl)-6-(hydroxymethyl)nicotinamide] | > 8.00 | 7.22 |
| O=C(Nc1cn(Cc2cc(F)c(F)c(F)c2)cn1)c1csc(CO)n1 [Example 8] | 7.11 | 6.24 |
| O=C(Nc1cn(Cc2cc(F)c(F)c(F)c2)cn1)c1cnc(CO)c(Cl)c1 [Example 41, 5-Chloro-6-(hydroxymethyl)-N-[1-(3,4,5-trifluorobenzyl)-1H-imidazol-4-yl]nicotinamide] | 7.29 | 7.23 |
| O=C(Nc1cn(Cc2cc(F)cc(F)c2)cn1)c1cnc(CO)c(C(F)F)c1 [Example 79, N-[1-(3,5-difluorobenzyl)-1H-imidazol-4-yl]-5-(difluoromethyl)-6-(hydroxymethyl)nicotinamide] | 7.10 | 7.22 |
| O=C(Nc1cn(Cc2cc(F)cc(Br)c2)cn1)c1cnc(CO)c(C(F)F)c1 [Example 76, N-[1-(3-bromo-5-fluorobenzyl)-1H-imidazol-4-yl]-5-(difluoromethyl)-6-(hydroxymethyl)nicotinamide] | 7.30 | 7.22 |
| O=C(COc1ccc(CO)nc1)Nc1cn(Cc2cc(F)c(F)c(F)c2)cn1 [Example 2] | 6.20 | 6.22 |
| Cc1nc(C(=O)Nc2cn(Cc3cc(F)c(F)c(F)c3)cn2)sc1CO [Example 48, 5-(Hydroxymethyl)-4-methyl-N-[1-(3,4,5-trifluorobenzyl)-1H-imidazol-4-yl]-1,3-thiazole-2-carboxamide] | 7.02 | 6.24 |
